# Experiments:
# Assay type in all cases: in vivo
# [1] = system: Italian ryegrass (Lolium mutiflorum); experiment: Test C preemergence, visual plant response rating
# Description: (§1) Seeds of plant species selected from barnyardgrass (Echinochloa crus-galli), kochia (Bassia scoparia), ragweed (common ragweed, Ambrosia artemisiifolia), Italian ryegrass (Lolium mutiflorum), foxtail, giant (giant foxtail, Setaria faberi), foxtail, green (green foxtail, Setaria viridis), and pigweed (Amaranthus retroflexus) were planted into a blend of loam soil and sand and treated preemergence with a directed soil spray using test chemicals formulated in anon-phytotoxic solvent mixture which included a surfactant.
# (§2) At the same time, plants selected from these weed species and also wheat (Triticum aestivum), corn (Zea mays), blackgrass (Alopecurus myosuroides), and galium (catchweed bedstraw, Galium aparine) were planted in pots containing the same blend of loam soil and sand and treated with post emergence applications of test chemicals formulated in the same manner. Plants ranged in height from 2 to 10 cm and were in the one- to two-leaf stage for the postemergence treatment. Treated plants and untreated controls were maintained in a greenhouse for approximately 10 d, after which time all treated plants were compared to untreated controls and visually evaluated for injury. Plant response ratings, summarized in Table C, are based on a 0 to 100 scale where 0 is no effect and 100 is complete control. A dash (-)response means no test result.
# [2] = system: barnyardgrass (Echinochloa crus-galli); experiment: Test C preemergence, visual plant response rating
# Description: as §1, §2
# [3] = system: foxtail, giant (giant foxtail, Setaria faberi); experiment: Test C preemergence, visual plant response rating
# Description: as §1, §2
# kochia (Bassia scoparia) [4] = experiment: Test C preemergence, visual plant response rating
# Description: as §1, §2
# [5] = system: pigweed (Amaranthus retroflexus); experiment: Test C preemergence, visual plant response rating
# Description: as §1, §2
# [6] = system: Italian ryegrass (Lolium mutiflorum); experiment: Test C postemergence, visual plant response rating
# Description: as §1, §2
# [7] = system: barnyardgrass (Echinochloa crus-galli); experiment: Test C postemergence, visual plant response rating
# Description: as §1, §2
# [8] = system: blackgrass (Alopecurus myosuroides); experiment: Test C postemergence, visual plant response rating
# Description: as §1, §2
# corn (Zea mays) = experiment: Test C postemergence, visual plant response rating
# Description: as §1, §2
# [9] = system: foxtail, giant (giant foxtail, Setaria faberi); experiment: Test C postemergence, visual plant response rating
# Description: as §1, §2
# [10] = system: galium (catchweed bedstraw, Galium aparine); experiment: Test C postemergence, visual plant response rating
# Description: as §1, §2
# kochia (Bassia scoparia) [11] = experiment: Test C postemergence, visual plant response rating
# Description: as §1, §2
# [12] = system: pigweed (Amaranthus retroflexus); experiment: Test C postemergence, visual plant response rating
# Description: as §1, §2
# [13] = system: ragweed (common ragweed, Ambrosia artemisiifolia); experiment: Test C postemergence, visual plant response rating
# Description: as §1, §2
# [14] = system: wheat (Triticum aestivum); experiment: Test C postemergence, visual plant response rating
# Description: as §1, §2
# [15] = system: barnyardgrass (Echinochloa crus-galli); experiment: Test D flooded paddy test, visual plant response rating; conditions: 250 g ai/ha, scale 0 to 100 (0 no effect, 100 complete control), 13 to 15 d
# Experimental: (§3) Plant species in the flooded paddy test selected from rice (Oryza sativa), sedge umbrella (small-flower umbrella sedge, Cyperus difformis) duck salad (Heteranthera limosa), and barnyardgrass (Echinochloa crus-galli) were grown to the 2-leaf stage for testing. At time of treatment, test pots were flooded to 3 cm above the soil surface, treated by application of test compounds directly to the paddy water, and then maintained at that water depth for the duration of the test. Treated plants and controls were maintained in a greenhouse for 13 to 15 d, after which time all species were compared to controls and visually evaluated. Plant response ratings, summarized in Table D, are based on a scale of 0 to 100 where 0 is no effect and 100 is complete control. A dash (-) response means no test result.
# [16] = system: duck salad (Heteranthera limosa); experiment: as above; conditions: 250 g ai/ha, scale 0 to 100 (0 no effect, 100 complete control), 13 to 15 d
# Experimental: as §3
# rice (Oryza sativa) = experiment: as above; conditions: 250 g ai/ha, scale 0 to 100 (0 no effect, 100 complete control), 13 to 15 d
# Experimental: as §3
# [17] = system: sedge umbrella (small-flower umbrella sedge, Cyperus difformis); experiment: as above; conditions: 250 g ai/ha, scale 0 to 100 (0 no effect, 100 complete control), 13 to 15 d
# Experimental: as §3
# [18] = Test C, 31 g ai/ha, 0 is no effect, 100 is complete control
# [19] = Test C, postemergence, 125 g ai/ha
# [20] = Test C, 125 g ai/ha, 0 is no effect, 100 is complete control
smiles,measurement,setting,value
CCON=C(c1cc(Cl)cc(Br)c1)c1c(O)c(C)nn(C)c1=O [Compound 181],"Ryegrass, Italian plant response rating (0 to 100 scale)",[1]; 125 g ai/ha,90
same,"Ryegrass, Italian plant response rating (0 to 100 scale)",[1]; [18],0
same,Barnyardgrass plant response rating (0 to 100 scale),[2]; 125 g ai/ha,60
same,Barnyardgrass plant response rating (0 to 100 scale),[2]; [18],0
same,"Foxtail, Giant plant response rating (0 to 100 scale)",[3]; 125 g ai/ha,90
same,"Foxtail, Giant plant response rating (0 to 100 scale)",[3]; [18],50
same,Kochia plant response rating (0 to 100 scale),kochia (Bassia scoparia) [4]; 125 g ai/ha,70
same,Kochia plant response rating (0 to 100 scale),kochia (Bassia scoparia) [4]; [18],30
same,Pigweed plant response rating (0 to 100 scale),[5]; 125 g ai/ha,90
same,Pigweed plant response rating (0 to 100 scale),[5]; [18],30
same,"Ryegrass, Italian plant response rating (0 to 100 scale)","[6]; Postemergence, 31 g ai/ha",70
same,"Ryegrass, Italian plant response rating (0 to 100 scale)",[6]; [19],100
same,Barnyardgrass plant response rating (0 to 100 scale),"[7]; Postemergence, 31 g ai/ha",40
same,Barnyardgrass plant response rating (0 to 100 scale),[7]; [19],60
same,Blackgrass plant response rating (0 to 100 scale),"[8]; Postemergence, 31 g ai/ha",0
same,Blackgrass plant response rating (0 to 100 scale),[8]; [19],20
same,Corn plant response rating (0 to 100 scale),"corn (Zea mays); Postemergence, 31 g ai/ha",0
same,Corn plant response rating (0 to 100 scale),corn (Zea mays); [19],30
same,"Foxtail, Giant plant response rating (0 to 100 scale)","[9]; Postemergence, 31 g ai/ha",50
same,"Foxtail, Giant plant response rating (0 to 100 scale)",[9]; [19],80
same,Galium plant response rating (0 to 100 scale),"[10]; Postemergence, 31 g ai/ha",100
same,Galium plant response rating (0 to 100 scale),[10]; [19],100
same,Kochia plant response rating (0 to 100 scale),"kochia (Bassia scoparia) [11]; Postemergence, 31 g ai/ha",60
same,Kochia plant response rating (0 to 100 scale),kochia (Bassia scoparia) [11]; [19],80
same,Pigweed plant response rating (0 to 100 scale),"[12]; Postemergence, 31 g ai/ha",40
same,Pigweed plant response rating (0 to 100 scale),[12]; [19],90
same,Ragweed plant response rating (0 to 100 scale),"[13]; Postemergence, 31 g ai/ha",100
same,Ragweed plant response rating (0 to 100 scale),[13]; [19],100
same,Wheat plant response rating (0 to 100 scale),"[14]; Postemergence, 31 g ai/ha",0
same,Wheat plant response rating (0 to 100 scale),[14]; [19],50
same,"Plant response rating, Barnyardgrass (Flood)",[15],0
same,"Plant response rating, Ducksalad (Flood)",[16],0
same,"Plant response rating, Rice (Flood)",rice (Oryza sativa),0
same,"Plant response rating, Sedge, Umbrella (Flood)",[17],0
CC(C)O/N=C(/c1c(O)c(Cl)nn(C)c1=O)c1cc(Br)cc2ccccc12 [Compound 232],"Ryegrass, Italian plant response rating (0 to 100 scale)",[1]; [18],0
same,"Ryegrass, Italian plant response rating (0 to 100 scale)",[1]; [20],0
same,Barnyardgrass plant response rating (0 to 100 scale),[2]; [18],60
same,Barnyardgrass plant response rating (0 to 100 scale),[2]; [20],100
same,"Foxtail, Giant plant response rating (0 to 100 scale)",[3]; [18],70
same,"Foxtail, Giant plant response rating (0 to 100 scale)",[3]; [20],100
same,Kochia plant response rating (0 to 100 scale),kochia (Bassia scoparia) [4]; [18],0
same,Kochia plant response rating (0 to 100 scale),kochia (Bassia scoparia) [4]; [20],10
same,Pigweed plant response rating (0 to 100 scale),[5]; [18],70
same,Pigweed plant response rating (0 to 100 scale),[5]; [20],90
same,"Ryegrass, Italian plant response rating (0 to 100 scale)","[6]; Postemergence, 31 g ai/ha",0
same,"Ryegrass, Italian plant response rating (0 to 100 scale)",[6]; [19],0
same,Barnyardgrass plant response rating (0 to 100 scale),"[7]; Postemergence, 31 g ai/ha",40
same,Barnyardgrass plant response rating (0 to 100 scale),[7]; [19],90
same,Blackgrass plant response rating (0 to 100 scale),"[8]; Postemergence, 31 g ai/ha",20
same,Blackgrass plant response rating (0 to 100 scale),[8]; [19],50
same,Corn plant response rating (0 to 100 scale),"corn (Zea mays); Postemergence, 31 g ai/ha",0
same,Corn plant response rating (0 to 100 scale),corn (Zea mays); [19],10
same,"Foxtail, Giant plant response rating (0 to 100 scale)","[9]; Postemergence, 31 g ai/ha",60
same,"Foxtail, Giant plant response rating (0 to 100 scale)",[9]; [19],80
same,Galium plant response rating (0 to 100 scale),"[10]; Postemergence, 31 g ai/ha",80
same,Galium plant response rating (0 to 100 scale),[10]; [19],100
same,Kochia plant response rating (0 to 100 scale),"kochia (Bassia scoparia) [11]; Postemergence, 31 g ai/ha",20
same,Kochia plant response rating (0 to 100 scale),kochia (Bassia scoparia) [11]; [19],50
same,Pigweed plant response rating (0 to 100 scale),"[12]; Postemergence, 31 g ai/ha",70
same,Pigweed plant response rating (0 to 100 scale),[12]; [19],90
same,Ragweed plant response rating (0 to 100 scale),"[13]; Postemergence, 31 g ai/ha",100
same,Ragweed plant response rating (0 to 100 scale),[13]; [19],100
same,Wheat plant response rating (0 to 100 scale),"[14]; Postemergence, 31 g ai/ha",0
same,Wheat plant response rating (0 to 100 scale),[14]; [19],0
same,"Plant response rating, Barnyardgrass (Flood)",[15],30
same,"Plant response rating, Ducksalad (Flood)",[16],30
same,"Plant response rating, Rice (Flood)",rice (Oryza sativa),0
same,"Plant response rating, Sedge, Umbrella (Flood)",[17],95
CO/N=C(\c1c(OC(C)=O)c(Cl)nn(C)c1=O)c1cc(Br)cc2ccccc12 [Compound 231],"Ryegrass, Italian plant response rating (0 to 100 scale)",[1]; [20],0
same,Barnyardgrass plant response rating (0 to 100 scale),[2]; [18],60
same,Barnyardgrass plant response rating (0 to 100 scale),[2]; [20],90
same,"Foxtail, Giant plant response rating (0 to 100 scale)",[3]; [18],30
same,"Foxtail, Giant plant response rating (0 to 100 scale)",[3]; [20],90
same,Kochia plant response rating (0 to 100 scale),kochia (Bassia scoparia) [4]; [20],0
same,Pigweed plant response rating (0 to 100 scale),[5]; [18],40
same,Pigweed plant response rating (0 to 100 scale),[5]; [20],50
same,"Ryegrass, Italian plant response rating (0 to 100 scale)","[6]; Postemergence, 31 g ai/ha",0
same,"Ryegrass, Italian plant response rating (0 to 100 scale)",[6]; [19],10
same,Barnyardgrass plant response rating (0 to 100 scale),"[7]; Postemergence, 31 g ai/ha",30
same,Barnyardgrass plant response rating (0 to 100 scale),[7]; [19],70
same,Blackgrass plant response rating (0 to 100 scale),"[8]; Postemergence, 31 g ai/ha",10
same,Blackgrass plant response rating (0 to 100 scale),[8]; [19],20
same,Corn plant response rating (0 to 100 scale),"corn (Zea mays); Postemergence, 31 g ai/ha",0
same,Corn plant response rating (0 to 100 scale),corn (Zea mays); [19],20
same,"Foxtail, Giant plant response rating (0 to 100 scale)","[9]; Postemergence, 31 g ai/ha",30
same,"Foxtail, Giant plant response rating (0 to 100 scale)",[9]; [19],70
same,Galium plant response rating (0 to 100 scale),"[10]; Postemergence, 31 g ai/ha",70
same,Galium plant response rating (0 to 100 scale),[10]; [19],100
same,Kochia plant response rating (0 to 100 scale),"kochia (Bassia scoparia) [11]; Postemergence, 31 g ai/ha",10
same,Kochia plant response rating (0 to 100 scale),kochia (Bassia scoparia) [11]; [19],20
same,Pigweed plant response rating (0 to 100 scale),"[12]; Postemergence, 31 g ai/ha",20
same,Pigweed plant response rating (0 to 100 scale),[12]; [19],60
same,Ragweed plant response rating (0 to 100 scale),"[13]; Postemergence, 31 g ai/ha",100
same,Ragweed plant response rating (0 to 100 scale),[13]; [19],100
same,Wheat plant response rating (0 to 100 scale),"[14]; Postemergence, 31 g ai/ha",0
same,Wheat plant response rating (0 to 100 scale),[14]; [19],0
same,"Plant response rating, Barnyardgrass (Flood)",[15],15
same,"Plant response rating, Ducksalad (Flood)",[16],75
same,"Plant response rating, Rice (Flood)",rice (Oryza sativa),0
same,"Plant response rating, Sedge, Umbrella (Flood)",[17],30

# Source: patent publication US20210045385A1, “PYRIDAZINONE-SUBSTITUTED KETOXIMES AS HERBICIDES” (FMC Corporation, priority 2018, published 2021)
